Data as given in the NIST ThermoML archive (doi:10.1021/acs.jced.8b00201).

Assay: xn = mol fraction of the nth substance listed
Settings: 100 kPa, Liquid; for viscosity: Concentric cylinders viscometry; for mass density: Vibrating tube method

CCCCCCCO [heptan-1-ol] + O=C1CCCCC1
Settings	mass density [kg/m3]	viscosity [mPa·s]
293.15 K, x2 = 0	822.2	7.03
293.15 K, x2 = 0.0809	829.7	6.06
293.15 K, x2 = 0.1601	837.3	5.23
293.15 K, x2 = 0.2406	845.4	4.49
293.15 K, x2 = 0.3511	857.4	3.68
293.15 K, x2 = 0.4227	865.6	3.27
293.15 K, x2 = 0.5754	884.4	2.71
293.15 K, x2 = 0.6492	894.2	2.59
293.15 K, x2 = 0.7422	907.3	2.46
293.15 K, x2 = 0.8513	923.9	2.38
293.15 K, x2 = 0.9385	938.2	2.35
298.15 K, x2 = 0	818.7	5.92
298.15 K, x2 = 0.0809	826	5.15
298.15 K, x2 = 0.1601	833.5	4.46
298.15 K, x2 = 0.2406	841.4	3.89
298.15 K, x2 = 0.3511	853.1	3.22
298.15 K, x2 = 0.4227	861.2	2.83
298.15 K, x2 = 0.5754	879.6	2.39
298.15 K, x2 = 0.6492	889.3	2.29
298.15 K, x2 = 0.7422	902.2	2.19
298.15 K, x2 = 0.8513	918.5	2.12
298.15 K, x2 = 0.9385	932.6	2.09
303.15 K, x2 = 0	815.2	5.03
303.15 K, x2 = 0.0809	822.3	4.41
303.15 K, x2 = 0.1601	829.7	3.86
303.15 K, x2 = 0.2406	837.5	3.37
303.15 K, x2 = 0.3511	849	2.82
303.15 K, x2 = 0.4227	857	2.51
303.15 K, x2 = 0.5754	875.2	2.11
303.15 K, x2 = 0.6492	884.8	2.04
303.15 K, x2 = 0.7422	897.6	1.97
303.15 K, x2 = 0.8513	913.8	1.94
303.15 K, x2 = 0.9385	927.7	1.93
308.15 K, x2 = 0	811.6	4.3
308.15 K, x2 = 0.0809	818.7	3.78
308.15 K, x2 = 0.1601	825.9	3.32
308.15 K, x2 = 0.2406	833.6	2.93
308.15 K, x2 = 0.3511	845	2.49
308.15 K, x2 = 0.4227	852.8	2.26
308.15 K, x2 = 0.5754	870.9	1.93
308.15 K, x2 = 0.6492	880.4	1.85
308.15 K, x2 = 0.7422	893.1	1.78
308.15 K, x2 = 0.8513	909.2	1.75
308.15 K, x2 = 0.9385	923.1	1.76
313.15 K, x2 = 0	808	3.71
313.15 K, x2 = 0.0809	814.9	3.24
313.15 K, x2 = 0.1601	822.1	2.86
313.15 K, x2 = 0.2406	829.7	2.54
313.15 K, x2 = 0.3511	840.9	2.19
313.15 K, x2 = 0.4227	848.7	2.03
313.15 K, x2 = 0.5754	866.6	1.77
313.15 K, x2 = 0.6492	876	1.72
313.15 K, x2 = 0.7422	888.6	1.65
313.15 K, x2 = 0.8513	904.5	1.62
313.15 K, x2 = 0.9385	918.4	1.6
318.15 K, x2 = 0	804.4	3.21
318.15 K, x2 = 0.0809	811.2	2.83
318.15 K, x2 = 0.1601	818.3	2.5
318.15 K, x2 = 0.2406	825.8	2.23
318.15 K, x2 = 0.3511	836.9	1.95
318.15 K, x2 = 0.4227	844.6	1.82
318.15 K, x2 = 0.5754	862.3	1.61
318.15 K, x2 = 0.6492	871.7	1.57
318.15 K, x2 = 0.7422	884.2	1.51
318.15 K, x2 = 0.8513	900.2	1.49
318.15 K, x2 = 0.9385	914.1	1.47
323.15 K, x2 = 0	800.7	2.79
323.15 K, x2 = 0.0809	807.5	2.49
323.15 K, x2 = 0.1601	814.5	2.23
323.15 K, x2 = 0.2406	821.9	2.01
323.15 K, x2 = 0.3511	833	1.77
323.15 K, x2 = 0.4227	840.7	1.64
323.15 K, x2 = 0.5754	858.4	1.45
323.15 K, x2 = 0.6492	867.7	1.4
323.15 K, x2 = 0.7422	880.3	1.35
323.15 K, x2 = 0.8513	896.4	1.33
323.15 K, x2 = 0.9385	910.2	1.33
